According to the supplement of paper PMC10307832:

Experiments:
Experiment in all cases: relative viability (nuclei count vs DMSO), 5 days (fraction); higher = more cells survive
Mirin + Phenformin = compound: N=C1NC(=O)/C(=C/c2ccc(O)cc2)S1 [Mirin] + N=C(N)NC(=N)NCCc1ccccc1 [Phenformin] (partner 250 µM)
Method in brief: (§1)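 The day after seeding in 1536-well plates, lung cancer cell lines were treated by pin tool with a single drug, or with a fixed anchor-drug dose together with five library-drug doses (not always all listed) in √10 steps. After 5 days, a combined fix-and-stain solution (final 0.05% Triton X-100, 1% formaldehyde, 1 ug/ml Hoechst) was added. Nuclei counted on 4× images gave relative viability as treated counts over vehicle counts, reported as the median of duplicate plates.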

Mirin + Lapatinib = compound: N=C1NC(=O)/C(=C/c2ccc(O)cc2)S1 [Mirin] + CS(=O)(=O)CCNCc1ccc(-c2ccc3ncnc(Nc4ccc(OCc5cccc(F)c5)c(Cl)c4)c3c2)o1 [Lapatinib] (partner 2 µM)
Method in brief: as §1

[1] = compound: CCn1c(-c2nonc2N)nc2cnc(Oc3cccc(NC(=O)c4ccc(OCCN5CCOCC5)cc4)c3)cc21 + Cc1nc(Nc2ncc(C(=O)Nc3c(C)cccc3Cl)s2)cc(N2CCN(CCO)CC2)n1 [Dasatinib] (partner 0.075 µM)
Method in brief: as §1

[2] = compound: CCC1=CN=CN=C1N2CCN(CC2)CC3=NC4=C(N3)C=C(C=C4)C(F)(F)F + Cc1nc(Nc2ncc(C(=O)Nc3c(C)cccc3Cl)s2)cc(N2CCN(CCO)CC2)n1 [Dasatinib] (partner 0.075 µM)
Method in brief: as §1

NCI-H1993 was tested, and the relative viability (Mirin + Phenformin; first compound 0.25 µM) was 0.459, the relative viability (Mirin + Phenformin; first compound 2.5 µM) was 0.517 and the relative viability (Mirin + Phenformin; first compound 7.906 µM) was 0.586. For the same cell line, the relative viability (Mirin + Phenformin; first compound 25 µM) was 0.623, the relative viability (Mirin + Lapatinib; first compound 0.25 µM) was 0.856 and the relative viability (Mirin + Lapatinib; first compound 0.7906 µM) was 0.784. For the same cell line, the relative viability (Mirin + Lapatinib; first compound 2.5 µM) was 0.887, the relative viability (Mirin + Lapatinib; first compound 7.906 µM) was 0.976 and the relative viability (Mirin + Lapatinib; first compound 25 µM) was 0.81. The relative viability ([1]; first compound 0.04 µM) was 0.596, the relative viability ([1]; first compound 0.1265 µM) was 0.572 and the relative viability ([1]; first compound 0.4 µM) was 0.5. It also gave a relative viability ([1]; first compound 1.265 µM) of 0.552, a relative viability ([1]; first compound 4 µM) of 0.569 and a relative viability ([2]; first compound 0.04 µM) of 0.608. The relative viability ([2]; first compound 0.1265 µM) was 0.553, the relative viability ([2]; first compound 0.4 µM) was 0.545 and the relative viability ([2]; first compound 1.265 µM) was 0.521. The relative viability ([2]; first compound 4 µM) was 0.581.

Work on HCC-827 yielded a relative viability (Mirin + Phenformin; first compound 0.25 µM) of 0.415, a relative viability (Mirin + Phenformin; first compound 0.7906 µM) of 0.362 and a relative viability (Mirin + Phenformin; first compound 2.5 µM) of 0.401. For the same cell line, the relative viability (Mirin + Phenformin; first compound 7.906 µM) was 0.403, the relative viability (Mirin + Phenformin; first compound 25 µM) was 0.428 and the relative viability (Mirin + Lapatinib; first compound 0.25 µM) was 0.167. For the same cell line, the relative viability (Mirin + Lapatinib; first compound 0.7906 µM) was 0.182, the relative viability (Mirin + Lapatinib; first compound 2.5 µM) was 0.17 and the relative viability (Mirin + Lapatinib; first compound 7.906 µM) was 0.2. For the same cell line, the relative viability (Mirin + Lapatinib; first compound 25 µM) was 0.227, the relative viability ([1]; first compound 0.04 µM) was 0.24 and the relative viability ([1]; first compound 0.1265 µM) was 0.328. For the same cell line, the relative viability ([1]; first compound 0.4 µM) was 0.459, the relative viability ([1]; first compound 1.265 µM) was 0.484 and the relative viability ([1]; first compound 4 µM) was 0.424. It also gave a relative viability ([2]; first compound 0.04 µM) of 0.323, a relative viability ([2]; first compound 0.1265 µM) of 0.298 and a relative viability ([2]; first compound 0.4 µM) of 0.313. For the same cell line, the relative viability ([2]; first compound 1.265 µM) was 0.364 and the relative viability ([2]; first compound 4 µM) was 0.355.

In the case of NCI-H661, the relative viability (Mirin + Phenformin; first compound 0.25 µM) is reported as 0.292, the relative viability (Mirin + Phenformin; first compound 0.7906 µM) is reported as 0.278 and the relative viability (Mirin + Phenformin; first compound 2.5 µM) is reported as 0.287. For the same cell line, the relative viability (Mirin + Phenformin; first compound 7.906 µM) was 0.272, the relative viability (Mirin + Phenformin; first compound 25 µM) was 0.247 and the relative viability (Mirin + Lapatinib; first compound 0.25 µM) was 0.407. For the same cell line, the relative viability (Mirin + Lapatinib; first compound 0.7906 µM) was 0.567, the relative viability (Mirin + Lapatinib; first compound 2.5 µM) was 0.539 and the relative viability (Mirin + Lapatinib; first compound 7.906 µM) was 0.442. For the same cell line, the relative viability (Mirin + Lapatinib; first compound 25 µM) was 0.392, the relative viability ([1]; first compound 0.04 µM) was 0.672 and the relative viability ([1]; first compound 0.1265 µM) was 0.519. The relative viability ([1]; first compound 0.4 µM) was 0.593, the relative viability ([1]; first compound 1.265 µM) was 0.422 and the relative viability ([1]; first compound 4 µM) was 0.426. The relative viability ([2]; first compound 0.04 µM) was 0.951, the relative viability ([2]; first compound 0.1265 µM) was 0.872 and the relative viability ([2]; first compound 0.4 µM) was 0.827. It also gave a relative viability ([2]; first compound 1.265 µM) of 0.772 and a relative viability ([2]; first compound 4 µM) of 0.909.

In the case of CAL-12T, the relative viability (Mirin + Phenformin; first compound 0.25 µM) is reported as 0.627, the relative viability (Mirin + Phenformin; first compound 2.5 µM) is reported as 0.665 and the relative viability (Mirin + Phenformin; first compound 7.906 µM) is reported as 0.591. The relative viability (Mirin + Phenformin; first compound 25 µM) was 0.657, the relative viability (Mirin + Lapatinib; first compound 0.25 µM) was 0.702 and the relative viability (Mirin + Lapatinib; first compound 2.5 µM) was 0.92. The relative viability (Mirin + Lapatinib; first compound 25 µM) was 0.238, the relative viability ([1]; first compound 0.04 µM) was 0.39 and the relative viability ([1]; first compound 0.1265 µM) was 0.43. It also gave a relative viability ([1]; first compound 0.4 µM) of 0.267, a relative viability ([1]; first compound 1.265 µM) of 0.276 and a relative viability ([1]; first compound 4 µM) of 0.157. It also gave a relative viability ([2]; first compound 0.04 µM) of 0.336, a relative viability ([2]; first compound 0.1265 µM) of 0.352 and a relative viability ([2]; first compound 0.4 µM) of 0.417. It also gave a relative viability ([2]; first compound 1.265 µM) of 0.518 and a relative viability ([2]; first compound 4 µM) of 0.36.

Work on PC-14 yielded a relative viability (Mirin + Phenformin; first compound 0.25 µM) of 0.595, a relative viability (Mirin + Phenformin; first compound 0.7906 µM) of 0.509 and a relative viability (Mirin + Phenformin; first compound 2.5 µM) of 0.659. It also gave a relative viability (Mirin + Phenformin; first compound 7.906 µM) of 0.553, a relative viability (Mirin + Phenformin; first compound 25 µM) of 0.814 and a relative viability (Mirin + Lapatinib; first compound 0.25 µM) of 0.373. The relative viability (Mirin + Lapatinib; first compound 0.7906 µM) was 0.39, the relative viability (Mirin + Lapatinib; first compound 2.5 µM) was 0.339 and the relative viability (Mirin + Lapatinib; first compound 7.906 µM) was 0.382. It also gave a relative viability (Mirin + Lapatinib; first compound 25 µM) of 0.49, a relative viability ([1]; first compound 0.04 µM) of 0.221 and a relative viability ([1]; first compound 0.1265 µM) of 0.173. It also gave a relative viability ([1]; first compound 0.4 µM) of 0.174, a relative viability ([1]; first compound 1.265 µM) of 0.158 and a relative viability ([1]; first compound 4 µM) of 0.115. The relative viability ([2]; first compound 0.04 µM) was 0.269, the relative viability ([2]; first compound 0.1265 µM) was 0.258 and the relative viability ([2]; first compound 0.4 µM) was 0.264. For the same cell line, the relative viability ([2]; first compound 1.265 µM) was 0.218 and the relative viability ([2]; first compound 4 µM) was 0.264.

NCI-H23 showed a relative viability (Mirin + Phenformin; first compound 0.25 µM) of 0.817, a relative viability (Mirin + Phenformin; first compound 2.5 µM) of 0.747 and a relative viability (Mirin + Phenformin; first compound 7.906 µM) of 0.753. For the same cell line, the relative viability (Mirin + Phenformin; first compound 25 µM) was 0.862, the relative viability (Mirin + Lapatinib; first compound 0.25 µM) was 1.17 and the relative viability (Mirin + Lapatinib; first compound 2.5 µM) was 1.13. It also gave a relative viability (Mirin + Lapatinib; first compound 7.906 µM) of 0.936, a relative viability (Mirin + Lapatinib; first compound 25 µM) of 0.742 and a relative viability ([1]; first compound 0.04 µM) of 0.927. The relative viability ([1]; first compound 0.1265 µM) was 0.758, the relative viability ([1]; first compound 0.4 µM) was 0.294 and the relative viability ([1]; first compound 1.265 µM) was 0.611. For the same cell line, the relative viability ([1]; first compound 4 µM) was 0.543, the relative viability ([2]; first compound 0.04 µM) was 0.794 and the relative viability ([2]; first compound 0.1265 µM) was 0.897. For the same cell line, the relative viability ([2]; first compound 0.4 µM) was 0.653, the relative viability ([2]; first compound 1.265 µM) was 0.769 and the relative viability ([2]; first compound 4 µM) was 0.865.

With SK-LU-1 the relative viability (Mirin + Phenformin; first compound 0.25 µM) was 0.643, the relative viability (Mirin + Phenformin; first compound 0.7906 µM) was 0.486 and the relative viability (Mirin + Phenformin; first compound 2.5 µM) was 0.522. The relative viability (Mirin + Phenformin; first compound 7.906 µM) was 0.497, the relative viability (Mirin + Phenformin; first compound 25 µM) was 0.44 and the relative viability (Mirin + Lapatinib; first compound 0.25 µM) was 0.974. It also gave a relative viability (Mirin + Lapatinib; first compound 0.7906 µM) of 0.88, a relative viability (Mirin + Lapatinib; first compound 2.5 µM) of 0.792 and a relative viability (Mirin + Lapatinib; first compound 7.906 µM) of 0.788. For the same cell line, the relative viability (Mirin + Lapatinib; first compound 25 µM) was 0.541, the relative viability ([1]; first compound 0.04 µM) was 0.157 and the relative viability ([1]; first compound 0.1265 µM) was 0.15. The relative viability ([1]; first compound 0.4 µM) was 0.103, the relative viability ([1]; first compound 1.265 µM) was 0.139 and the relative viability ([1]; first compound 4 µM) was 0.128. For the same cell line, the relative viability ([2]; first compound 0.04 µM) was 0.18, the relative viability ([2]; first compound 0.1265 µM) was 0.172 and the relative viability ([2]; first compound 0.4 µM) was 0.2. For the same cell line, the relative viability ([2]; first compound 1.265 µM) was 0.169 and the relative viability ([2]; first compound 4 µM) was 0.205.

NCI-H727 gave a relative viability (Mirin + Phenformin; first compound 0.25 µM) of 0.828, a relative viability (Mirin + Phenformin; first compound 0.7906 µM) of 0.922 and a relative viability (Mirin + Phenformin; first compound 2.5 µM) of 0.444. For the same cell line, the relative viability (Mirin + Phenformin; first compound 7.906 µM) was 0.657, the relative viability (Mirin + Phenformin; first compound 25 µM) was 0.577 and the relative viability (Mirin + Lapatinib; first compound 0.25 µM) was 0.995. The relative viability (Mirin + Lapatinib; first compound 0.7906 µM) was 0.714, the relative viability (Mirin + Lapatinib; first compound 2.5 µM) was 0.96 and the relative viability (Mirin + Lapatinib; first compound 7.906 µM) was 0.672. The relative viability (Mirin + Lapatinib; first compound 25 µM) was 0.851, the relative viability ([1]; first compound 0.04 µM) was 0.507 and the relative viability ([1]; first compound 0.1265 µM) was 0.621. It also gave a relative viability ([1]; first compound 0.4 µM) of 0.405, a relative viability ([1]; first compound 1.265 µM) of 0.467 and a relative viability ([1]; first compound 4 µM) of 0.521. The relative viability ([2]; first compound 0.04 µM) was 0.407, the relative viability ([2]; first compound 0.1265 µM) was 0.38 and the relative viability ([2]; first compound 0.4 µM) was 0.364. The relative viability ([2]; first compound 4 µM) was 0.314.

In the case of HCC-366, the relative viability (Mirin + Phenformin; first compound 0.25 µM) is reported as 0.627, the relative viability (Mirin + Phenformin; first compound 2.5 µM) is reported as 0.718 and the relative viability (Mirin + Phenformin; first compound 7.906 µM) is reported as 0.601. For the same cell line, the relative viability (Mirin + Phenformin; first compound 25 µM) was 0.583, the relative viability (Mirin + Lapatinib; first compound 0.25 µM) was 1.06 and the relative viability (Mirin + Lapatinib; first compound 0.7906 µM) was 0.957. For the same cell line, the relative viability (Mirin + Lapatinib; first compound 2.5 µM) was 1.07, the relative viability (Mirin + Lapatinib; first compound 7.906 µM) was 0.986 and the relative viability (Mirin + Lapatinib; first compound 25 µM) was 0.752. The relative viability ([1]; first compound 0.04 µM) was 0.699, the relative viability ([1]; first compound 0.1265 µM) was 0.504 and the relative viability ([1]; first compound 0.4 µM) was 0.0838. The relative viability ([1]; first compound 1.265 µM) was 0.0451, the relative viability ([1]; first compound 4 µM) was 0.0508 and the relative viability ([2]; first compound 0.04 µM) was 0.566. For the same cell line, the relative viability ([2]; first compound 0.1265 µM) was 0.655, the relative viability ([2]; first compound 0.4 µM) was 0.567 and the relative viability ([2]; first compound 1.265 µM) was 0.583. For the same cell line, the relative viability ([2]; first compound 4 µM) was 0.629.
